Like-named read-outs stand apart in the source and are kept apart here. One block for each compound: values may come before it.
Tests used:
[1] = test system: IL-1 production by human monocytes; assay: in vitro IL-1 production by LPS-stimulated human peripheral blood monocytes (EL-4 readout); format: cell-based; conditions: for inhibition at 1 µM: 10^-6 M; for inhibition at 0.1 µM: 10^-7 M
Description: The effects of antiinflammatory/antiarthritic drugs of different classes, including Compound 1 on the in vitro production of IL-1 by human monocytes was examined.
(§1) Bacterial lipopolysaccharide (LPS) was used to induce IL-1 production by human peripheral blood monocytes. IL-1 activity was measured by its ability to stimulate a Interleukin 2 (IL-2) producing cell line (EL-4) to secrete IL-2, in concert with A23187 ionophore, according to the method of Simon et al., J. Immunol. Methods, 84, 85, (1985). Human peripheral blood monocytes were isolated and purified from either fresh blood preparations from volunteer donors, or from blood Bank buffy coats, according to the procedure of Colotta et al., J. Immunol., 132, 936 (1984). 1×10^6 of such monocytes are plated in 24-well plates at a concentration of 2 million/ml per well. The cells were allowed to adhere for 2 hours, after which time non-adherent cells were removed by gentle washing. Test compounds were then added to the cells for 1 hour (hr) before the addition of lipopolysaccharide (10 ng/ml unless otherwise noted), and the cultures were incubated at 37° C. for an additional 24 hours. At the end of the incubation period, culture supernatants were removed and clarified of cells and all debris. Culture supernatants were immediately assayed for IL-1 biological activity as well as prostaglandin and/or leukotriene concentrations by radioimmunoassay.
^(a) All compounds, except chloroquine, were dissolved in absolute
ethanol at 10^-2 M, which was subsequently diluted further in tissue
assay system at doses tested. Furthermore, test samples were dialyzed
prior to testing in the IL1 assay.
In order to elucidate the mechanism by which Compound 1 mediates its anti-inflammatory activity, the ability of this compound and two closely related analog metabolites, (i.e., the analogs of Compound 1 wherein X is S(0)n and n is 1 or 2) to inhibit human IL-1 production in vitro was evaluated according to the method of Example 1. Briefly, 1×10^6 human peripheral blood monocytes were plated in 24-well plates and allowed to adhere for 1 hr at 37° C. The above compounds were added to a final concentration of 10^-5 M to 10^-8 M. The monocytes were stimulated to produce IL-1 with 1 ng/ml LPS after a 1 hr pretreatment of the cells with the respective compounds.
The inhibitory effect of additional compounds of Formula (I) on the in vitro production of IL-1 production of IL-1 by human monocytes was determined according to the procedure of Examples 1 and 2.

[2] = test system: endotoxin shock in C57B1/6 mice; format: in vivo, mouse; conditions: mouse, in vivo
Description: Mice are very resistant to the lethal effects of bacterial lipopolysaccharides (LPS). D-Galactosamine (D-GALN) induces a high degree of sensitization to the lethal effects of LPS in mice and other experimental animals. [See, Galanos et al., Proc. Natl. Acad Sci. USA., 76, 5939 (1979)]. In mice, depending on the strain and age, the sensitivity to endotoxin can be increased many thousand-fold.
A number of preliminary experiments were carried out to establish this model of lethal endotoxin shock.

PGE2 = assay: in vitro prostaglandin (PGE2) synthesis by LPS-stimulated human monocytes, RIA; format: cell-based; conditions: for inhibition at 1 µM: 10^-6 M
Description: as §1
^(c) PGE2 was assayed using an RIA kit.

[3] = test system: IL-1 production by splenic adherent cells; assay: adjuvant-induced arthritis in the rat: IL-1 production by LPS-stimulated splenic adherent cells; format: in vivo; conditions: for IL-1 Production (splenic adherent cells), % normal control: mg/kg: Compound 1 60, indomethacin 2.0, prednisolone 10, methotrexate 0.3, D-penicillamine 50; for effect in adjuvant arthritic rats: short-term treatment
Description: (§2) Adjuvant-induced arthritis in the rat is a model of systemic inflammation with characteristics similar to rheumatoid arthritis in man. […] This model was employed to assess the effect of Compound 1 in vivo on this elevated IL-1 production. Briefly, rats were injected on day 0 with Freund's complete adjuvant in the right hind leg. Drugs were prepared as a suspension in tragacanth and administered daily per os either prophylactically (days 1 to 16) or therapeutically in a short-term modality (days 14 to 16). In all cases, final administration of drug occurred at 3 hours prior to sacrifice. Spleens were removed from these rats and the adherent cells were assessed for their ability to produce IL-1 in vitro in response to stimulation by LPS.
(§3) PROPHYLACTIC TREATMENT: Drugs were administered daily p.o. as a suspensio
(§4) in tragacanth from day 1 to day 16. Final dose given 3 hrs before
(§5) TREATMENT: Drugs were administered daily p.o. as above from
(§6) day 14 to day 16. Final dose given 3 hrs before sacrifice.
(§7) ***P < 0.01 Indomethacin 2.0 mg/kg
(§8) **P < 0.05 Compound 1 60 mg/kg
(§9) *P < 0.10 Prednisolone 10 mg/kg
(§10) D-Penicillamine 50 mg/kg

[4] = test system: adjuvant-induced arthritis in the rat; assay: adjuvant-induced arthritis in the rat: right leg paw edema; format: in vivo; conditions: mg/kg: Compound 1 60, indomethacin 2.0, prednisolone 10, methotrexate 0.3, D-penicillamine 50
Description: as §2, §3, §4, §5, §6, §7, §8, §9, §10

splenic adherent cells = assay: adjuvant-induced arthritis in the rat: % splenic adherent cells; format: in vivo; conditions: mg/kg: Compound 1 60, indomethacin 2.0, prednisolone 10, methotrexate 0.3, D-penicillamine 50
Description: as §2, §3, §4, §5, §6, §7, §8, §9, §10

in vitro = format: cell-based, human; conditions: human, peripheral blood monocytes
Description: as §1
^(b) At doses at or above 10^-5 M, this compound exerted some

[5] = test system: murine model of endotoxin shock; conditions: Hagmann et al., 1982; cited from earlier work
[6] = Homo sapiens, Monocyte, Table 3, read-out: % Inhibition @ 10^-6 M
[7] = Homo sapiens, Monocyte, read-out: % Inhibition IL-1
[8] = Homo sapiens, Monocyte, read-out: % Inhibition PGE2
[9] = prophylactic, daily p.o. days 1-16
[10] = therapeutic, daily p.o. days 14-16

Compound: COc1ccc(-c2nc3n(c2-c2ccncc2)CCS3)cc1 [Compound 6]
- inhibition at 1 µM [1, 6]: 64%

Compound: O=C1CCN(c2ccccc2)N1 [Phenidone, phenidone]
- inhibition of IL-1 production [1]: marginally active in inhibition of IL-1 production
- inhibition at 1 µM [1, 7]: 18%
- inhibition at 0.1 µM [1, 7]: 0%
- protection from lethal effects of LPS/GALN [2]: protective effects
- inhibition of prostaglandin synthesis (PGE2): little inhibitory effect on prostaglandin synthesis
- inhibition at 1 µM (PGE2; [8]): 0%

Compound: COc1ccc2c(c1)c(CC(=O)O)c(C)n2C(=O)c1ccc(Cl)cc1 [INDOMETHACIN, indomethacin]
- IL-1 Production (splenic adherent cells), % normal control [3, 9]: 274 ± 100 % normal control
- IL-1 Production (splenic adherent cells), % normal control [3, 10]: 330 ± 121 % normal control
- effect in adjuvant arthritic rats ([3]; therapeutic): no effect
- Right leg paw edema, % normal control [4, 9]: 113 ± 8 % normal control
- Right leg paw edema, % normal control [4, 10]: 145 ± 18 % normal control
- % Adherent Cells (splenic), % normal control (splenic adherent cells; [9]): 480 ± 189 % normal control
- % Adherent Cells (splenic), % normal control (splenic adherent cells; [10]): 394 ± 253 % normal control

Compound: CC(Cc1ccc(O)c(O)c1)C(C)Cc1ccc(O)c(O)c1 (stereo not shown) [NDGA, nordihydroguaiaretic acid]
- inhibition of IL-1 production [1]: marginally active in inhibition of IL-1 production
- inhibition at 10 µM ([1]; Homo sapiens, Monocyte, 10^-5 M, read-out: % Inhibition IL-1): 88%
- inhibition at 1 µM [1, 7]: 33%
- inhibition at 0.1 µM [1, 7]: 31%
- viability at 24 h, 10 µM (in vitro): ~50%
- inhibition of prostaglandin synthesis (PGE2): little inhibitory effect on prostaglandin synthesis
- inhibition at 10 µM (PGE2; Homo sapiens, Monocyte, 10^-5 M, read-out: % Inhibition PGE2): 25%
- inhibition at 1 µM (PGE2; [8]): 0%
- inhibition at 0.1 µM (PGE2; Homo sapiens, Monocyte, 10^-7 M, read-out: % Inhibition PGE2): 0%

Compound: Fc1ccc(-c2nc3n(c2-c2ccncc2)CCC3)cc1 [Compound 5]
- inhibition at 1 µM [1, 6]: 78%
- protection from lethal effects of LPS/GALN [2]: protective effects

Compound: CC(=O)OC[C@H]1O[C@@H]([S-])[C@H](OC(C)=O)[C@@H](OC(C)=O)[C@@H]1OC(C)=O.CCP(CC)CC.[Au+] [auranofin]
- effect in adjuvant arthritic rats ([3]; therapeutic): no effect

Compound: CN(Cc1cnc2nc(N)nc(N)c2n1)c1ccc(C(=O)N[C@@H](CCC(=O)O)C(=O)O)cc1 [METHOTREXATE, methotrexate]
- IL-1 Production (splenic adherent cells), % normal control [3, 9]: 67 ± 56 % normal control
- IL-1 Production (splenic adherent cells), % normal control [3, 10]: 436 ± 178 % normal control
- effect in adjuvant arthritic rats ([3]; therapeutic): no effect
- Right leg paw edema, % normal control [4, 9]: 96 ± 4 % normal control
- Right leg paw edema, % normal control [4, 10]: 194 ± 2 % normal control
- % Adherent Cells (splenic), % normal control (splenic adherent cells; [9]): 134 ± 10 % normal control
- % Adherent Cells (splenic), % normal control (splenic adherent cells; [10]): 284 ± 175 % normal control

Compound: Clc1ccc(C(c2ccc(Cl)cc2)n2cc[n+](CC(OCc3ccc(Cl)cc3Cl)c3ccc(Cl)cc3Cl)c2)cc1 (stereo not shown) [calmidazolium]
- prevention of endotoxin lethality [5]: prevented endotoxin lethality

- IC50 ([1]; Homo sapiens, Monocyte, 1 ng/ml LPS, 1 hr pretreatment): 610 nM
Compound: O=S1(=O)CCn2c1nc(-c1ccc(F)cc1)c2-c1ccncc1 [Compound 3]
- inhibition at 1 µM [1, 6]: 54%

Compound: COc1ccc(-c2nc3n(c2-c2ccncc2)CCC3)cc1 [Compound 7]
- inhibition at 1 µM [1, 6]: 40%

— patent US4794114A, “Inhibition of interleukin-1 production by monocytes and/or macrophages” (SmithKline Beckman Corporation, priority 1987, dated 1988)
